{"source": "patent US8461141B2", "about": "“Preventive or therapeutic drug for Alzheimer-type dementia” (Mochida Pharmaceutical Co., Ltd., priority 2005, dated 2013)", "key": {"[1]": {"test_system": "patients diagnosed with Alzheimer-type dementia", "test": "Hasegawa Dementia Scale and symptom observation in patients with Alzheimer-type dementia", "format": "in vivo, human", "settings": "for Hasegawa Dementia Scale After 2 months: individual Alzheimer-type dementia patients, EPA-E alone 300 or 600 mg/day for 2 months, scale of 30", "protocol": "(§1) Each patient was evaluated for the improvement of the dementia by Hasegawa Dementia Scale at the start of the test, 2 months after the start of the test (2 months from the start of administering ethyl icosapentate), and 6 months after the start of the test (4 months after the start of the combined administration of the ethyl icosapentate and the levothyroxine sodium)."}, "[2]": {"test_system": "patients diagnosed with cerebrovascular dementia", "test": "Hasegawa Dementia Scale and symptom observation in patients with cerebrovascular dementia (Reference Example)", "format": "in vivo, human", "settings": "for Hasegawa Dementia Scale After 2 months: individual cerebrovascular dementia patients, EPA-E alone 300 or 600 mg/day for 2 months", "protocol": "as §1"}}, "note": "Several values for one entry are separate records, joined by “and”; a condition that tells them apart may be missing. Equal values may be shown once."}
{"compound": "CC/C=C\\C/C=C\\C/C=C\\C/C=C\\C/C=C\\CCCC(=O)OCC", "note": "[EPA-E, ethyl icosapentate]", "values": [{"measurement": "Score of the Hasegawa Dementia Scale (range) 2 months after the start of the test", "setting": "[1]; 14 Alzheimer-type dementia patients, EPA-E alone 300-600 mg/day", "result": "(7-17)"}, {"measurement": "Score of the Hasegawa Dementia Scale (average ± standard deviation) 2 months after the start of the test", "setting": "[1]; 14 Alzheimer-type dementia patients, EPA-E alone 300-600 mg/day, at the start 10.0 ± 3.5", "result": "11.4 ± 3.0"}, {"measurement": "Change in the scores of the Hasegawa Dementia Scale, in words", "setting": "[1]; Alzheimer-type dementia patients, sole administration of ethyl icosapentate 300 to 600 mg/day for 2 months", "result": "no substantial change"}, {"measurement": "Hasegawa Dementia Scale After 2 months", "setting": "[1]; EPA-E 300 mg/day", "result": "14 and 12 and 11 and 10 and 7 and 9"}, {"measurement": "Hasegawa Dementia Scale After 2 months", "setting": "[1]; EPA-E 600 mg/day", "result": "7 and 8 and 11 (2×) and 17 and 13 and 15 and 14"}, {"measurement": "Score of the Hasegawa Dementia Scale (range) 2 months after the start of the test", "setting": "[2]; 10 cerebrovascular dementia patients, EPA-E alone 300-600 mg/day", "result": "(9-15)"}, {"measurement": "Score of the Hasegawa Dementia Scale (average ± standard deviation) 2 months after the start of the test", "setting": "[2]; 10 cerebrovascular dementia patients, EPA-E alone 300-600 mg/day, at the start 10.4 ± 1.7", "result": "11.2 ± 1.9"}, {"measurement": "Hasegawa Dementia Scale After 2 months", "setting": "[2]; EPA-E 300 mg/day", "result": "13 and 10 (2×) and 12"}, {"measurement": "Hasegawa Dementia Scale After 2 months", "setting": "[2]; EPA-E 600 mg/day", "result": "15 and 11 (2×) and 12 and 9 (2×)"}]}
